Experimental data from patent US20170189465A1, “Anti Hallucination Drug” (Kracie Pharma, Ltd., priority 2014, published 2017).

What was measured:
Format in all cases: in vivo
head-twitches of mice = assay: Production of hallucination model mouse with DOI; details: 1 mg/kg intraperitoneally, counted for five minutes after five minutes
Protocol: (§1) Four-week-old ICR male mice (17-19 g) were purchased from Japan SLC, Inc. and subjected to the experiment after an acclimatization period of a week. The animals were kept at a room temperature of 23±2° C. at a humidity of 55±10% in a 12-hour cycle of turning on the light at 8:00 and turning off the light at 20:00. The experimental animals were allowed to drink water and eat freely during the period of the experiment.
(§2) In a physiological saline solution, (+/−) 2,5-dimethoxy-4-iodoamphetamine (DOI: sigma Lot 0.012M4812V), which is a hallucinogen, was dissolved. Immediately after intraperitoneally injecting the solution to the mice at 1 mg/kg, the mice were moved to a breeding cage without a floor mat. After five minutes, the numbers of head-twitches of the mice (used as an indicator of a hallucinatory symptom) were counted for five minutes (Egashira et al., Repeated administration of Yokukansan inhibits DOI-induced head-twitch response and decreases expression of 5-hydroxytryptamine (5-HT) 2A receptors in the prefrontal cortex., Prog Neuropsychopharmacol Biol Psychiatry., 32, 1516-1520, 2008). In this regard, to exclude the influence of external noise or the like on the behavior of the mice, the head-twitches were counted in a soundproof chamber.

[1] = tested on: hallucinogen-induced head-twitching response in mice; assay: DOI-induced head-twitching response in mice after oral administration once a day for 14 days; details: oral once a day for 14 days, DOI 1 mg/kg i.p.
Protocol: as §1, §2
Similar ICR male mice to those used in Test 1 were randomly divided into eight groups including a normal group, a control group and six test groups. A 0.5% CMC-Na solution was orally administered to the normal group and the control group once a day for 14 days, and the atractylodes rhizome extract at different doses (20, 100 and 500 mg/kg) and the atractylodes lancea rhizome extract at different doses (20, 100 and 500 mg/kg), which were each prepared using a 0.5% CMC-Na solution, were orally administered to the six test groups once a day for 14 days. One hour after the completion of the final oral administration, 1 mg/kg of DOI was intraperitoneally injected to the mice of the control group and the test groups. Then, the head-twitches of the mice were counted in a similar manner as in Test 1. The results of the measurement were tested by the Dunnett's test using one-way analysis of variance for the comparison between multiple groups. Here, when p<0.05, it was determined that the result attained statistical significance.
The anti-hallucination actions of atractylenolide III and β-eudesmol were examined by the same method as that of Test 2 except for the points which are especially specified. In this test, atractylenolide III purified in Example 1 and commercial β-eudesmol (Lot. WEG2032, Wako Pure Chemical Industries, Ltd.) were dissolved in corn oil and used. The doses were set based on the average amounts of the compounds contained in the crude drugs and on the doses used in Test 2. Specifically, the doses of atractylenolide III were set at 0.03, 0.15 and 0.7 mg/kg, and the doses of β-eudesmol were set at 0.4, 2.0 and 10 mg/kg.
The anti-hallucination actions of atractylone and atractylenolide II were examined by the same method as that of Test 2 except for the points which are especially specified. In this test, atractylone and atractylenolide II purified in Example 1 were dissolved in corn oil and used. The doses of atractylone were set at 0.36, 1.8 and 9.0 mg/kg, and the doses of atractylenolide II were set at 0.03, 0.15 and 0.75 mg/kg.
The anti-hallucination action of atractylenolide I was examined by the same method as that of Test 2 except for the points which are especially specified. In this test, atractylenolide I purified in Example 1 was dissolved in corn oil and used. The doses of atractylenolide I were set at 0.03, 0.15 and 0.75 mg/kg.

[2] = tested on: hallucinogen-induced head-twitching response in mice; assay: DOI-induced head-twitching response in mice after single application (one oral administration); details: single oral application, 0.03, 0.15 and 0.75 mg/kg, DOI i.p. after one hour, FIG. 7
Protocol: as §2
Similar ICR male mice to those used in Test 1 were randomly divided into eight groups including a normal group, a control group and six test groups. A 0.5% CMC-Na solution was […], and the atractylodes rhizome extract at different doses ([…]) and the atractylodes lancea rhizome extract at different doses ([…]), which were each prepared using a 0.5% CMC-Na solution, […] […] Then, the head-twitches of the mice were counted in a similar manner as in Test 1. […] Here, when p<0.05, it was determined that the result attained statistical significance. […]

Question: Which “numbers of head-twitches compared with normal mice” value (head-twitches of mice) does the source give for `COc1cc(CC(C)N)c(OC)cc1I` (racemic) [DOI, (+/−) 2,5-dimethoxy-4-iodoamphetamine] here?
Answer: The value was “higher”.

Question: `C=C1CCC[C@]2(C)C[C@]3(O)OC(=O)C(C)=C3C[C@@H]12` [atractylenolide III] was tested. Which “number of head-twitches as compared to the control group” value (shortened to “number … compared to the control group”) ([1]; 0.15 mg/kg in corn oil) did it give?
Answer: Its value is “decreased significantly”.

Question: What about the “number … compared to the control group” value ([1]; 0.7 mg/kg in corn oil) of the same molecule?
Answer: Its value is “decreased significantly”.

Question: And the “number of head-twitches versus the control group” value [2]?
Answer: Its value is “no significant difference”.

Question: `C=C1CCC[C@]2(C)C=C3OC(=O)C(C)=C3C[C@@H]12` [atractylenolide I] was tested. Which “number … compared to the control group” value ([1]; 0.15 mg/kg in corn oil) did it give?
Answer: Its value is “decreased significantly”.

Question: What about the “number … compared to the control group” value ([1]; 0.75 mg/kg in corn oil) of the same molecule?
Answer: The value was “decreased significantly”.

Question: How did the “number … compared to the control group” value ([1]; 9.0 mg/kg in corn oil) turn out when `C=C1CCC[C@]2(C)Cc3occ(C)c3C[C@@H]12` [atractylone] was run?
Answer: The value was “decreased significantly”.

Question: How did the “number … compared to the control group” value ([1]; 10 mg/kg in corn oil) turn out when `C=C1CCC[C@]2(C)CC[C@@H](C(C)(C)O)C[C@@H]12` [β-eudesmol] was run?
Answer: Its value is “decreased significantly”.

Question: For atractylenolide II, which “number … compared to the control group” value ([1]; 0.75 mg/kg in corn oil) is on record?
Answer: Its value is “decreased significantly”.
